Patent publication US20220324835A1 (Nurix Therapeutics, Inc., priority 2018, published 2022)

Tests used:
primary human B cells = assay: B cell activation assay (CD69 on anti-IgM stimulated B cells); assay type: cell-based; conditions: AUC of dose response curve (10 μM to 1 nM) of CD69 MFI normalized to DMSO control
Protocol: Peripheral blood mononuclear cells (PBMC) were obtained either: 1) by using Ficoll-Paque™ (GE Healthcare) for separation of peripheral blood hematopoietic cells from buffy coats of healthy human donors; or 2) directly from LeukoPak donations. Human primary B cells were isolated from the PBMCs utilizing negative selection with commercial kits following the manufacturer's protocol (StemCells Catalog #17954) to yield >95% CD20+ cells assessed by flow cytometry. Primary human B cells were plated at 0.7-1×10^5 per well in a 96-well plate with Cbl-b inhibitors over a dose ranging from 10 μM to 1 nM and incubated at 37° C. 5% CO2, with a final DMSO concentration of <0.5%. Cells were stimulated with anti-IgM for 20 hours at 37° C. 5% CO2. Surface activation markers on mature CD20^+ IgD^+ B cells were monitored by FACS using an anti-CD69 antibody (BD Biosciences).
Cbl-b inhibitors were tested to determine their ability to induce or enhance surface expression of cell surface markers on B cells (e.g., CD69), which is indicative of B cell activation.
Readouts were reported as area under curve (AUC) of the dose response curve of CD69 mean fluorescence intensity (MFI) normalized to the DMSO control. Baseline for this study was the measurement obtained from primary human B cells treated with DMSO in the presence of 2.5 μg/mL of anti-IgM-F(ab′)2. […] Compounds were ranked into bins according to their readouts as follows: A indicates ≤0.5, B indicates 0.5-1.00, C indicates 1.01-1.50, and D indicates ≥1.51.

[1] = test system: human T-cells with allogenic immature dendritic cells; assay: Allogenic mixed lymphocyte reaction (MLR), T-cell proliferation; assay type: cell-based; conditions: 120 h, 5 days, baseline T-cells without Cbl-b inhibitor, read-out: Proliferation, fold change over baseline
Protocol: Cbl-b inhibitor effects on primary human T-cells were also evaluated in the context of an allogenic mixed lymphocyte reaction (MLR). Allogenic immature dendritic cells were generated under the following conditions. Peripheral blood mononuclear cells (PBMC) were obtained either: 1) by using Ficoll-Paque™ (GE Healthcare) for separation of peripheral blood hematopoietic cells from huffy coats of healthy human donors; or 2) directly from LeukoPak donations. […] Monocytes were cultured with 30 ng/mL of recombinant human GM-CSF and 20 ng/mL of recombinant human IL-4 for seven days to generate immature dendritic cells. Monocytes and T-cells were either isolated fresh from peripheral blood or thawed from frozen stocks. Human T-cells were isolated, labeled with CFSE and incubated with inhibitors as described above. […] Proliferation of the T-cells was evaluated by flow cytometry.
Readouts for the allogenic mixed lymphocyte reaction were reported as fold change over baseline. Baseline for this study was the measurement obtained from total human T-cells stimulated with allogenic immature dendritic cells, wherein the T-cells were not incubated with a Cbl-b inhibitor (Table 5). Increases in proliferation greater than 2-fold over baseline were considered a positive response (Table 5).

T-cells = assay: In vivo activity: CD25 expression on CD4+ or CD8+ T-cells of mice stimulated with anti-CD3 antibody; conditions: 2 μg anti-CD3 antibody, 24 hours
Protocol: A method of determining the pharmacodynamic profile of Cbl-b inhibitors was performed by dosing strains of mice with competent immune systems such as C57BL/6 or BALB/c with a Cbl-b inhibitor. The Cbl-b inhibitor was dissolved in a suitable formulation and administered by one of various routes such as intravenous (IV), intraperitoneal (IP), subcutaneous (SC), or oral (PO), at a suitable dose level and frequency (e.g. twice per day BID or thrice per day TID) as informed by prior pharmacokinetic and tolerability studies. Following administration of the Cbl-b inhibitor, T-cells and indirectly other immune cells (e.g. via cytokine production) were stimulated in vivo by administration of an anti-CD3 antibody or antigen-binding fragment thereof in PBS at defined amounts such as 2 μg or 10 μg per animal by routes such as IV or IP (See Hirsh et al., J. Immunol., 1989; Ferran, et al., Eur. J. Immunol., 1990). Additional study control arms included groups of mice treated with a vehicle formulation alone (i.e., formulation without the Cbl-b inhibitor and anti-CD3 antibody), a formulation containing the Cbl-b inhibitor alone, a formulation containing the anti-CD3 antibody alone, PBS alone, or combinations of these agents. The level of immune activation was then assessed by analysis of plasma cytokine levels and/or expression of activation markers on immune cells (e.g. T-cells). Blood or lymphoid organs (e.g. spleen) were collected at defined time points (e.g. 8 hours or 24 hours). Blood samples were processed to collect plasma for determination of cytokine levels using standard methods known in the art. Cytokines measured included IL-2, IFNγ, and TNFα. Additional blood samples and lymphoid tissues were processed for flow cytometric analysis of immune cells (e.g. T-cells) using standard methods to determine expression of cell type-specific markers and activation markers such as CD25 and/or CD69. Augmentation of immune stimulation by Cbl-b inhibitor administration was assessed by comparing the relative concentrations of cytokines in plasma, or the expression levels of activation markers on immune cells between appropriate groups (e.g. mice treated with Cbl-b inhibitor and 2 μg anti-CD3 antibody versus mice treated with vehicle and 2 μg anti-CD3 antibody).
Cbl-b inhibitors were tested to determine their ability to induce or enhance the level of cytokines (e.g. IL-2, IFNγ, and TNFα) in blood obtained from treated mice stimulated with an anti-CD3 antibody, which is indicative of modulation of the immune response. Cbl-b inhibitors were also tested to determine their ability to induce or enhance the expression of cell surface markers on T-cells (e.g. CD25 and/or CD69) isolated from treated mice stimulated with an anti-CD3 antibody, which is indicative of modulation of the immune response.
Readouts were reported as fold change over baseline. The fold change was calculated from the mean value of mice treated with Cbl-b inhibitor and 2 μg anti-CD3 antibody, with the baseline defined as the mean value of mice treated with vehicle and 2 μg anti-CD3 antibody. Increases in the percentage of cells with surface expression of CD25 on CD4+ T-cells or CD8+ T-cells greater than 1.5-fold over baseline at 24 hours were considered a positive response. Increases in the plasma concentration of IL-2, IFNγ, and TNFα greater than 1.5-fold over baseline at 8 hours post-stimulation were also considered a positive response (Table 8). Fold changes were ranked into bins according to their readouts as follows: A indicates >2.50, B indicates 2.01-2.50, C indicates 1.51-2.00, D indicates 1.00-1.50, and E indicates <1.00.

## Cn1cnnc1CC1(c2cccc(N3Cc4c(cc(CN5CC[C@H](C#N)C5)cc4C(F)(F)F)C3=O)c2)COC1 [Compound 422, (S)-1-((2-(3-(3-((4-methyl-4H-1,2,4-triazol-3-yl)methyl)oxetan-3-yl)phenyl)-3-oxo-7-(trifluoromethyl)isoindolin-5-yl)methyl)pyrrolidine-3-carbonitrile]
Primary human B cells
  CD69 MFI AUC: C (C indicates 1.01-1.50)
[1]
  fold induction at 3 µM: < 2
  fold induction at 10 µM: 2.01 to 3

## C[C@H](Cc1nncn1C)c1cccc(N2Cc3c(cc(CN4CC[C@H](F)C4)cc3C(F)(F)F)C2=O)c1 [Compound 399, 6-(((S)-3-fluoropyrrolidin-1-yl)methyl)-2-(3-((R)-1-(4-methyl-4H-1,2,4-triazol-3-yl)propan-2-yl)phenyl)-4-(trifluoromethyl)isoindolin-1-one]
Primary human B cells
  CD69 MFI AUC: C (C indicates 1.01-1.50)
[1]
  fold induction at 3 µM: 2.01 to 3
  fold induction at 10 µM: > 3.01

## C[C@H](Cc1nncn1C)c1cccc(NC(=O)c2cc3cc(N4CCNCC4)ccc3cn2)c1 [Compound 472, N-{3-[(2R)-1-(4-methyl-4H-1,2,4-triazol-3-yl)propan-2-yl]phenyl}-6-(piperazin-1-yl)isoquinoline-3-carboxamide]
Primary human B cells
  CD69 MFI AUC: C (C indicates 1.01-1.50)
[1]
  fold induction at 3 µM: < 2
  fold induction at 10 µM: < 2

## Cn1cnnc1CC1(c2cccc(NC(=O)c3nc4c(C(F)(F)F)cccc4[nH]3)c2)COC1 [Compound 335, N-(3-{3-[(4-methyl-1,2,4-triazol-3-yl)methyl]oxetan-3-yl}phenyl)-4-(trifluoromethyl)-1H-1,3-benzodiazole-2-carboxamide]
Primary human B cells
  CD69 MFI AUC: B (B indicates 0.5-1.00)
[1]
  fold induction at 3 µM: < 2
  fold induction at 10 µM: < 2

## Cc1cc(C(=O)Nc2cccc([C@@H](C)Cc3nncn3C)c2)nc(C2CC2)n1 [Compound 325, (S)-2-Cyclopropyl-6-methyl-N-(3-(1-(4-methyl-4H-1,2,4-triazol-3-yl)propan-2-yl)phenyl)pyrimidine-4-carboxamide]
Primary human B cells
  CD69 MFI AUC: C (C indicates 1.01-1.50)
[1]
  fold induction at 3 µM: < 2
  fold induction at 10 µM: < 2

## C[C@H](Cc1nncn1C)c1cccc(NC(=O)c2n[nH]c3c2CCC3)c1 [Compound 313, (R)-N-(3-(1-(4-Methyl-4H-1,2,4-triazol-3-yl)propan-2-yl)phenyl)-1,4,5,6-tetrahydrocyclopenta[c]pyrazole-3-carboxamide]
Primary human B cells
  CD69 MFI AUC: B (B indicates 0.5-1.00)
[1]
  fold induction at 3 µM: < 2
  fold induction at 10 µM: < 2

## Cn1cnnc1C(F)(F)[C@](C)(F)c1cccc(N2Cc3c(cc(CN4CC[C@@H](C#N)C4)cc3C(F)(F)F)C2=O)c1 [Compound 455, (R)-1-((3-oxo-2-(3-((R)-1,1,2-trifluoro-1-(4-methyl-4H-1,2,4-triazol-3-yl)propan-2-yl)phenyl)-7-(trifluoromethyl)isoindolin-5-yl)methyl)pyrrolidine-3-carbonitrile]
Primary human B cells
  CD69 MFI AUC: C (C indicates 1.01-1.50)
[1]
  fold induction at 3 µM: < 2
  fold induction at 10 µM: < 2

## Cn1cnnc1CC1(c2cccc(N3Cc4c(cc(CN5CCC[C@H](F)C5)cc4C(F)(F)F)C3=O)c2)COC1 [Compound 432, 6-{[(3S)-3-fluoropiperidin-1-yl]methyl}-2-(3-{3-[(4-methyl-4H-1,2,4-triazol-3-yl)methyl]oxetan-3-yl}phenyl)-4-(trifluoromethyl)-2,3-dihydro-1H-isoindol-1-one]
T-cells; 135 mpk PO BID
  CD4+ T-cell % CD25+: D (D indicates 1.00-1.50)
  CD8+ T-cell % CD25+: D (D indicates 1.00-1.50)

## Cn1cnnc1CC1(c2cccc(N3Cc4c(cc(CN5CC6(CC6)C5)cc4C(F)(F)F)C3=O)c2)COC1 [Compound 487, 6-{5-azaspiro[2.3]hexan-5-ylmethyl}-2-(3-{3-[(4-methyl-1,2,4-triazol-3-yl)methyl]oxetan-3-yl}phenyl)-4-(trifluoromethyl)-3H-isoindol-1-one]
T-cells; 135 mpk PO BID
  CD4+ T-cell % CD25+: C (C indicates 1.51-2.00)
  CD8+ T-cell % CD25+: D (D indicates 1.00-1.50)

## Cn1cnnc1C(F)(F)[C@](C)(F)c1cccc(N2Cc3c(cc(CN4CC[C@H](F)C4)cc3C(F)(F)F)C2=O)c1 [Compound 447, 6-(((S)-3-fluoropyrrolidin-1-yl)methyl)-2-(3-((R)-1,1,2-trifluoro-1-(4-methyl-4H-1,2,4-triazol-3-yl)propan-2-yl)phenyl)-4-(trifluoromethyl)isoindolin-1-one]
T-cells; 90 mpk PO BID
  CD4+ T-cell % CD25+: D (D indicates 1.00-1.50)
  CD8+ T-cell % CD25+: E (E indicates <1.00)
T-cells; 135 mpk PO BID
  CD4+ T-cell % CD25+: D (D indicates 1.00-1.50)
  CD8+ T-cell % CD25+: E (E indicates <1.00)
T-cells; 180 mpk PO BID
  CD4+ T-cell % CD25+: C (C indicates 1.51-2.00)
  CD8+ T-cell % CD25+: D (D indicates 1.00-1.50)

## Cn1cnnc1CC1(c2cccc(N3Cc4c(cc(CN5C[C@H]6C[C@H]6C5)cc4C(F)(F)F)C3=O)c2)COC1 [Compound 429, 6-(((1R,5S)-3-azabicyclo[3.1.0]hexan-3-yl)methyl)-2-(3-(3-((4-methyl-4H-1,2,4-triazol-3-yl)methyl)oxetan-3-yl)phenyl)-4-(trifluoromethyl)isoindolin-1-one]
T-cells; 135 mpk PO BID
  CD4+ T-cell % CD25+: D (D indicates 1.00-1.50)
  CD8+ T-cell % CD25+: D (D indicates 1.00-1.50)

## C[C@@H]1CN(Cc2cc3c(c(C(F)(F)F)c2)CN(c2cccc(C4(Cc5nncn5C)COC4)c2)C3=O)CCO1 [Example 663b, (R)-2-(3-(3-((4-methyl-4H-1,2,4-triazol-3-yl)methyl)oxetan-3-yl)phenyl)-6-((2-methylmorpholino)methyl)-4-(trifluoromethyl)isoindolin-1-one]
T-cells; 45 mpk PO BID
  CD4+ T-cell % CD25+: D (D indicates 1.00-1.50)
  CD8+ T-cell % CD25+: D (D indicates 1.00-1.50)
T-cells; 135 mpk PO BID
  CD4+ T-cell % CD25+: C (C indicates 1.51-2.00)
  CD8+ T-cell % CD25+: D (D indicates 1.00-1.50)
